Measurements: article PMC6332427, “Drug Discovery of Host CLK1 Inhibitors for Influenza Treatment” (Molecules, 2015)
Values after ≈ are worked out from the molar mass of the structure shown. Values joined by “and” are separate entries in the source; they are usually repeats but may differ in a detail not shown here. Equal entries are not always repeated.

Test system: MDCK cells
Experiment: not given
Conditions: dog, 72 h

Compound	CC0 (maximal non-cytotoxic concentration)	concentration above which toxic effects occur
O=C(Oc1cc(O)c2c(c1)O[C@H](c1cc(O)c(O)c(O)c1)[C@@H](O)C2)c1cc(O)c(O)c(O)c1 [J10688, Clypearin]	100 µg/mL	–
C/C=C/C(=O)c1c(O)c2c(c3c(-c4ccccc4)cc(=O)oc13)OC(C)(C)C=C2 [J10857]	30 µg/mL	–
O=C(O[C@@H]1O[C@@H]2COC(=O)c3cc(O)c(O)c(O)c3-c3c(cc(O)c(O)c3O)C(=O)O[C@H]([C@H]1O)[C@@H]2O)c1cc(O)c(O)c(O)c1 [J12098, Corilagin]	30 µg/mL	–
COc1cc(/C=C/c2cc(O)cc(O)c2)ccc1O [J14528, Isorhapontigenin]	30 µg/mL	–
Oc1cc(O)cc(/C=C/c2ccccc2)c1 [J14848, Pinosylvin]	10 µg/mL	above 10 μg/mL
O=c1cc(-c2ccccc2)oc2c(O)c(O)cc(O)c12 [J21548, Norwogonin]	30 µg/mL	–
COC(=O)c1cc(O)c(O)c(O)c1 [Methyl gallate]	30 µg/mL	–

Test system: not listed separately
Experiment: in vitro
Conditions: dog

Compound	CC50 at 72 h
O=C(Oc1cc(O)c2c(c1)O[C@H](c1cc(O)c(O)c(O)c1)[C@@H](O)C2)c1cc(O)c(O)c(O)c1 [J10688, Clypearin]	> 200 µg/mL
C/C=C/C(=O)c1c(O)c2c(c3c(-c4ccccc4)cc(=O)oc13)OC(C)(C)C=C2 [J10857]	77.7 µg/mL (≈ 200 µM)
O=C(O[C@@H]1O[C@@H]2COC(=O)c3cc(O)c(O)c(O)c3-c3c(cc(O)c(O)c3O)C(=O)O[C@H]([C@H]1O)[C@@H]2O)c1cc(O)c(O)c(O)c1 [J12098, Corilagin]	154 µg/mL (≈ 242 µM)
COc1cc(/C=C/c2cc(O)cc(O)c2)ccc1O [J14528, Isorhapontigenin]	83.4 µg/mL (≈ 323 µM)
Oc1cc(O)cc(/C=C/c2ccccc2)c1 [J14848, Pinosylvin]	18.3 µg/mL (≈ 86 µM)
O=c1cc(-c2ccccc2)oc2c(O)c(O)cc(O)c12 [J21548, Norwogonin]	91.8 µg/mL (≈ 340 µM)

Test system: influenza virus A/PR/8/34 (H1N1)
Experiment: organism not typed
Conditions: MDCK, 24 h, read-out: Simultaneous Treatment Assay EC50

Compound	EC50
O=c1c(-c2ccc(O)cc2)coc2cc(O)cc(O)c12 [Genistein]	> 30 µg/mL
O=C(Oc1cc(O)c2c(c1)O[C@H](c1cc(O)c(O)c(O)c1)[C@@H](O)C2)c1cc(O)c(O)c(O)c1 [J10688, Clypearin]	1.2 ± 0.28 µg/mL (≈ 2.62 µM)
C/C=C/C(=O)c1c(O)c2c(c3c(-c4ccccc4)cc(=O)oc13)OC(C)(C)C=C2 [J10857]	16.3 ± 2.29 µg/mL (≈ 41.9 µM)
O=C(O[C@@H]1O[C@@H]2COC(=O)c3cc(O)c(O)c(O)c3-c3c(cc(O)c(O)c3O)C(=O)O[C@H]([C@H]1O)[C@@H]2O)c1cc(O)c(O)c(O)c1 [J12098, Corilagin]	2 ± 2.22 µg/mL (≈ 3.15 µM)
COc1cc(/C=C/c2cc(O)cc(O)c2)ccc1O [J14528, Isorhapontigenin]	> 30 µg/mL
Oc1cc(O)cc(/C=C/c2ccccc2)c1 [J14848, Pinosylvin]	5.28 ± 2.45 µg/mL (≈ 24.9 µM)
O=c1cc(-c2ccccc2)oc2c(O)c(O)cc(O)c12 [J21548, Norwogonin]	> 30 µg/mL
COC(=O)c1cc(O)c(O)c(O)c1 [Methyl gallate]	> 30 µg/mL

Same assay, conditions: MDCK, read-out: Post-Treatment Assay EC50

Compound	EC50
O=c1c(-c2ccc(O)cc2)coc2cc(O)cc(O)c12 [Genistein]	> 30 µg/mL
O=C(Oc1cc(O)c2c(c1)O[C@H](c1cc(O)c(O)c(O)c1)[C@@H](O)C2)c1cc(O)c(O)c(O)c1 [J10688, Clypearin]	18.1 ± 3.02 µg/mL (≈ 39.4 µM)
C/C=C/C(=O)c1c(O)c2c(c3c(-c4ccccc4)cc(=O)oc13)OC(C)(C)C=C2 [J10857]	14.7 ± 5.25 µg/mL (≈ 37.8 µM)
O=C(O[C@@H]1O[C@@H]2COC(=O)c3cc(O)c(O)c(O)c3-c3c(cc(O)c(O)c3O)C(=O)O[C@H]([C@H]1O)[C@@H]2O)c1cc(O)c(O)c(O)c1 [J12098, Corilagin]	5.91 ± 1.44 µg/mL (≈ 9.32 µM)
COc1cc(/C=C/c2cc(O)cc(O)c2)ccc1O [J14528, Isorhapontigenin]	> 30 µg/mL
Oc1cc(O)cc(/C=C/c2ccccc2)c1 [J14848, Pinosylvin]	6.65 ± 4.3 µg/mL (≈ 31.3 µM)
O=c1cc(-c2ccccc2)oc2c(O)c(O)cc(O)c12 [J21548, Norwogonin]	> 30 µg/mL
COC(=O)c1cc(O)c(O)c(O)c1 [Methyl gallate]	> 30 µg/mL

Same assay, conditions: MDCK, read-out: Pre-Treatment Assay EC50

Compound	EC50
O=c1c(-c2ccc(O)cc2)coc2cc(O)cc(O)c12 [Genistein]	> 30 µg/mL
O=C(Oc1cc(O)c2c(c1)O[C@H](c1cc(O)c(O)c(O)c1)[C@@H](O)C2)c1cc(O)c(O)c(O)c1 [J10688, Clypearin]	0.75 ± 0.13 µg/mL (≈ 1.64 µM)
C/C=C/C(=O)c1c(O)c2c(c3c(-c4ccccc4)cc(=O)oc13)OC(C)(C)C=C2 [J10857]	18.4 ± 13 µg/mL (≈ 47.4 µM)
O=C(O[C@@H]1O[C@@H]2COC(=O)c3cc(O)c(O)c(O)c3-c3c(cc(O)c(O)c3O)C(=O)O[C@H]([C@H]1O)[C@@H]2O)c1cc(O)c(O)c(O)c1 [J12098, Corilagin]	3.99 ± 3.72 µg/mL (≈ 6.29 µM)
COc1cc(/C=C/c2cc(O)cc(O)c2)ccc1O [J14528, Isorhapontigenin]	5.98 ± 2.3 µg/mL (≈ 23.2 µM)
Oc1cc(O)cc(/C=C/c2ccccc2)c1 [J14848, Pinosylvin]	7.54 ± 5.48 µg/mL (≈ 35.5 µM)
O=c1cc(-c2ccccc2)oc2c(O)c(O)cc(O)c12 [J21548, Norwogonin]	> 30 µg/mL
COC(=O)c1cc(O)c(O)c(O)c1 [Methyl gallate]	> 30 µg/mL

Test system: influenza virus A/PR/8/34 (H1N1)
Experiment: microbe, parasite or virus in culture
Conditions: MDCK, read-out: EC50s in time-of-addition assays

Compound	EC50
O=C(O[C@@H]1O[C@@H]2COC(=O)c3cc(O)c(O)c(O)c3-c3c(cc(O)c(O)c3O)C(=O)O[C@H]([C@H]1O)[C@@H]2O)c1cc(O)c(O)c(O)c1 [J12098, Corilagin]	< 20 µg/mL

Same assay, conditions: unidentified influenza virus, H1N1|PR/8, MDCK, read-out: EC50s in time-of-addition assays

Compound	EC50
O=C(Oc1cc(O)c2c(c1)O[C@H](c1cc(O)c(O)c(O)c1)[C@@H](O)C2)c1cc(O)c(O)c(O)c1 [J10688, Clypearin]	< 20 µg/mL

Biological target: T1, recombinant human CLK1 (Homo sapiens, UniProt P49759)
T1 construct: The primer of human full length CLK1 gene was as follows; made in house; host or cells: Sf9 insect cells (baculovirus, pFastBac1)
Experiment: CLK1 inhibitory assay (Kinase-Glo luminescent kinase assay, MBP substrate)
Assay type: biochemical
Conditions: IC50, Kinase-Glo assay
Procedure: The optimal conditions were dependent on the largest change in luminescence when comparing kinase reaction wells with control wells.
The kinase assay in this study utilized appropriate concentration of recombinant purified protein CLK1 in the presence of MBP as the substrate, MgCl2, MnCl2, ATP in kinase buffer (10 mM Tris, 1 mM EGTA, 100 μM sodium orthovanadate, 10 μM p-nitrophenyl phosphate (PNP), pH7.4) in a reaction volume of 20 μL. The reaction system were incubated at 25 °C for appropriate time. The Kinase-Glo® Luminescent Kinase Assay Platform was used to measure kinase activity by quantitating the amount of ATP, the signals of which were recorded using PerkinElmer’s EnSpire Multilabel Plate Reader. All the above components were added to the plate by automatic dispenser (EDR-384S, BioTec, Tokyo, Japan). A series of parameters containing the amount of kinase (1.16–298 ng/mL), MBP (3.125–150 μg/mL), ATP (0.1–100 μM), Mg^2+ (0.01–100 mM), Mn^2+ (0.5–20 mM), the percentage of DMSO (0.03%–10%), reaction time and temperature were optimized respectively in order to get best performance. Z′ factor values was calculated as described.
The inhibition percentage of the compounds against CLK1 were calculated according to the formula: (1) inhibition%=[(RLUsample−RLUpositive)/(RLUnegative−RLUpositive)]×100% where the RLUsample, RLUpositive, RLUnegative are the measured RLU values with treatment of test compounds, the wells free of test compounds, and that of without kinase, respectively.

T1 sequence (P49759 whole entry): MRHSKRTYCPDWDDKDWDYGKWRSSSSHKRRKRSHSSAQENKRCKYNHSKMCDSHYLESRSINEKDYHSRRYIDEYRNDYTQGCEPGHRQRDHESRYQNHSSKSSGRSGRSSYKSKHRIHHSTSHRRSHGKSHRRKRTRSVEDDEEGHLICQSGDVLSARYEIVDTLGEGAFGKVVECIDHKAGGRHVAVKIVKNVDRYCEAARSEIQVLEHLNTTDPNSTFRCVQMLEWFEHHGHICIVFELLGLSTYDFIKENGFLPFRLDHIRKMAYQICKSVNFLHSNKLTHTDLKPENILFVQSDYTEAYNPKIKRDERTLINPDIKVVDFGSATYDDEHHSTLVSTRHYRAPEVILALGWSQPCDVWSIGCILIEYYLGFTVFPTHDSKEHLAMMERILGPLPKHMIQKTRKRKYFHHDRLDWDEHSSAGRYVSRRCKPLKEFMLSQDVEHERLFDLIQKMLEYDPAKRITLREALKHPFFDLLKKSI

Compound	IC50
O=c1c(-c2ccc(O)cc2)coc2cc(O)cc(O)c12 [Genistein]	< 185 µM
O=C(O[C@@H]1O[C@@H]2COC(=O)c3cc(O)c(O)c(O)c3-c3c(cc(O)c(O)c3O)C(=O)O[C@H]([C@H]1O)[C@@H]2O)c1cc(O)c(O)c(O)c1 [J12098, Corilagin]	< 78.8 µM and 0.599 µM
COc1cc(/C=C/c2cc(O)cc(O)c2)ccc1O [J14528, Isorhapontigenin]	< 194 µM
Oc1cc(O)cc(/C=C/c2ccccc2)c1 [J14848, Pinosylvin]	< 236 µM and 395 µM
O=c1cc(-c2ccccc2)oc2c(O)c(O)cc(O)c12 [J21548, Norwogonin]	< 185 µM
COC(=O)c1cc(O)c(O)c(O)c1 [Methyl gallate]	< 272 µM

Same assay, conditions: Kinase-Glo assay; read-out: IC50 (converted)

Compound	IC50
O=C(Oc1cc(O)c2c(c1)O[C@H](c1cc(O)c(O)c(O)c1)[C@@H](O)C2)c1cc(O)c(O)c(O)c1 [J10688, Clypearin]	< 109 µM and 2.62 µM
C/C=C/C(=O)c1c(O)c2c(c3c(-c4ccccc4)cc(=O)oc13)OC(C)(C)C=C2 [J10857]	< 129 µM

Test system: influenza virus A/PR/8/34 (H1N1)
Experiment: in vitro
Conditions: Post-Treatment Assay SI (selective index, CC50/EC50), post-treatment, MDCK, H1N1

Compound	selectivity ratio at 24 h
O=C(Oc1cc(O)c2c(c1)O[C@H](c1cc(O)c(O)c(O)c1)[C@@H](O)C2)c1cc(O)c(O)c(O)c1 [J10688, Clypearin]	> 11.1
C/C=C/C(=O)c1c(O)c2c(c3c(-c4ccccc4)cc(=O)oc13)OC(C)(C)C=C2 [J10857]	5.3
O=C(O[C@@H]1O[C@@H]2COC(=O)c3cc(O)c(O)c(O)c3-c3c(cc(O)c(O)c3O)C(=O)O[C@H]([C@H]1O)[C@@H]2O)c1cc(O)c(O)c(O)c1 [J12098, Corilagin]	26
Oc1cc(O)cc(/C=C/c2ccccc2)c1 [J14848, Pinosylvin]	3.23

Same assay, conditions: Pre-Treatment Assay SI (selective index, CC50/EC50), pre-treatment, MDCK, H1N1

Compound	selectivity ratio at 24 h
O=C(Oc1cc(O)c2c(c1)O[C@H](c1cc(O)c(O)c(O)c1)[C@@H](O)C2)c1cc(O)c(O)c(O)c1 [J10688, Clypearin]	> 267
C/C=C/C(=O)c1c(O)c2c(c3c(-c4ccccc4)cc(=O)oc13)OC(C)(C)C=C2 [J10857]	4.22
O=C(O[C@@H]1O[C@@H]2COC(=O)c3cc(O)c(O)c(O)c3-c3c(cc(O)c(O)c3O)C(=O)O[C@H]([C@H]1O)[C@@H]2O)c1cc(O)c(O)c(O)c1 [J12098, Corilagin]	38.5
COc1cc(/C=C/c2cc(O)cc(O)c2)ccc1O [J14528, Isorhapontigenin]	13.9
Oc1cc(O)cc(/C=C/c2ccccc2)c1 [J14848, Pinosylvin]	2.42

Same assay, conditions: Simultaneous Treatment Assay SI (selective index, CC50/EC50), simultaneous treatment, MDCK, H1N1

Compound	selectivity ratio at 24 h
O=C(Oc1cc(O)c2c(c1)O[C@H](c1cc(O)c(O)c(O)c1)[C@@H](O)C2)c1cc(O)c(O)c(O)c1 [J10688, Clypearin]	> 167
C/C=C/C(=O)c1c(O)c2c(c3c(-c4ccccc4)cc(=O)oc13)OC(C)(C)C=C2 [J10857]	4.78
O=C(O[C@@H]1O[C@@H]2COC(=O)c3cc(O)c(O)c(O)c3-c3c(cc(O)c(O)c3O)C(=O)O[C@H]([C@H]1O)[C@@H]2O)c1cc(O)c(O)c(O)c1 [J12098, Corilagin]	76.8
Oc1cc(O)cc(/C=C/c2ccccc2)c1 [J14848, Pinosylvin]	3.46

Test system: MDCK cells
Experiment: Cytotoxicity assay in MDCK cells (MTT, 72 h)
Conditions: MDCK cells, 72 h, MTT; more than 90% cells viable

Compound	CC0 (maximal non-cytotoxic concentration)
O=c1c(-c2ccc(O)cc2)coc2cc(O)cc(O)c12 [Genistein]	30 µg/mL

Test system: not listed separately
Experiment: Cytotoxicity assay in MDCK cells (MTT, 72 h)
Conditions: dog

Compound	CC50 at 72 h
O=c1c(-c2ccc(O)cc2)coc2cc(O)cc(O)c12 [Genistein]	75.6 µg/mL (≈ 280 µM)
COC(=O)c1cc(O)c(O)c(O)c1 [Methyl gallate]	69.5 µg/mL (≈ 377 µM)
